Measured values as given in PubChem BioAssay (NCI).
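Step 1: Grow cells in 96-well plates. Step 2: Expose to compound for 48 hours at 5 concentrations. Step 3: Interpolate endpoints linearly; if unreached, use highest concentration. TGI denotes the concentration required for complete inhibition of growth.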

How the values were obtained:
Assay in all cases: NCI-60 cell line screen, 48 h
NCI-H460 lung = system: NCI-H460 lung
HOP-92 NSCLC = system: HOP-92 NSCLC
OVCAR-4 ovarian = system: OVCAR-4 ovarian
NCI-H226 lung = system: NCI-H226 lung
U251 CNS = system: U251 CNS
IGROV1 ovarian = system: IGROV1 ovarian
NCI-H23 lung = system: NCI-H23 lung
SW-620 colon = system: SW-620 colon
CAKI-1 renal = system: CAKI-1 renal
MDA-N = system: MDA-N
COLO 205 colon = system: COLO 205 colon
MOLT-4 leukemia = system: MOLT-4 leukemia
DU-145 prostate = system: DU-145 prostate
PC-3 prostate = system: PC-3 prostate
M14 melanoma = system: M14 melanoma
SK-MEL-5 melanoma = system: SK-MEL-5 melanoma
K-562 leukemia = system: K-562 leukemia
UACC-257 melanoma = system: UACC-257 melanoma
LOX IMVI melanoma = system: LOX IMVI melanoma
BT-549 breast = system: BT-549 breast

Row | Compound | TGI (NCI-H460 lung) [µM] | TGI (HOP-92 NSCLC) [µM] | TGI (OVCAR-4 ovarian) [µM] | TGI (NCI-H226 lung) [µM] | TGI (U251 CNS) [µM] | TGI (IGROV1 ovarian) [µM] | TGI (NCI-H23 lung) [µM] | TGI (SW-620 colon) [µM] | TGI (CAKI-1 renal) [µM] | TGI (MDA-N) [µM] | TGI (COLO 205 colon) [µM] | TGI (MOLT-4 leukemia) [µM] | TGI (DU-145 prostate) [µM] | TGI (PC-3 prostate) [µM] | TGI (M14 melanoma) [µM] | TGI (SK-MEL-5 melanoma) [µM] | TGI (K-562 leukemia) [µM] | TGI (UACC-257 melanoma) [µM] | TGI (LOX IMVI melanoma) [µM] | TGI (BT-549 breast) [µM]
1 | CCOC(=O)C1=C(C)NC(=O)N([N+](=O)[O-])C1c1ccccc1C(F)(F)F (stereo not given) | > 100 | > 100 | > 100 | > 100 | > 100 | > 100 | > 100 | > 100 | > 100 | 79.7 | > 100 | > 100 | > 100 | > 100 | > 100 | > 100 | > 100 | > 100 | > 100 | > 100
2 | CCc1cc(=O)n(/C(C)=C/c2ccccc2)n1C | > 100 | > 100 | > 100 | > 100 | > 100 | > 100 | > 100 | > 100 | > 100 | > 100 | > 100 | > 100 | > 100 | > 100 | > 100 | > 100 | > 100 | > 100 | > 100 | > 100
